Reference: the NIST ThermoML archive (doi:10.1021/je034087q)
± gives the expanded uncertainty stated by the source.

Assay: xn = mol fraction of the nth substance listed

CC(C)=O [acetone] + O=C=O
Conditions | mass density [kg/m3]
323.15 K, 11950 kPa, Fluid (supercritical or subcritical phases), x2 = 0.811 | 807 ± 5
323.15 K, 12030 kPa, Fluid (supercritical or subcritical phases), x2 = 0.902 | 754 ± 5
323.15 K, 12090 kPa, Fluid (supercritical or subcritical phases), x2 = 0.948 | 711 ± 4
323.15 K, 12200 kPa, Fluid (supercritical or subcritical phases), x2 = 0.933 | 731 ± 5
323.15 K, 12260 kPa, Fluid (supercritical or subcritical phases), x2 = 0.882 | 779 ± 5
323.15 K, 12300 kPa, Fluid (supercritical or subcritical phases), x2 = 0.902 | 757 ± 5
323.15 K, 12370 kPa, Fluid (supercritical or subcritical phases), x2 = 0.772 | 818 ± 5
323.15 K, 12400 kPa, Fluid (supercritical or subcritical phases), x2 = 0.952 | 710 ± 4
323.15 K, 12560 kPa, Fluid (supercritical or subcritical phases), x2 = 0.811 | 813 ± 5
323.15 K, 12620 kPa, Fluid (supercritical or subcritical phases), x2 = 0.902 | 762 ± 5
323.15 K, 12620 kPa, Fluid (supercritical or subcritical phases), x2 = 0.933 | 740 ± 5
323.15 K, 12680 kPa, Fluid (supercritical or subcritical phases), x2 = 0.186 | 788 ± 5
323.15 K, 12750 kPa, Fluid (supercritical or subcritical phases), x2 = 0.948 | 727 ± 5
323.15 K, 12960 kPa, Fluid (supercritical or subcritical phases), x2 = 0.902 | 769 ± 5
323.15 K, 12970 kPa, Fluid (supercritical or subcritical phases), x2 = 0.882 | 785 ± 5
323.15 K, 13090 kPa, Fluid (supercritical or subcritical phases), x2 = 0.811 | 818 ± 5
323.15 K, 13130 kPa, Fluid (supercritical or subcritical phases), x2 = 0.772 | 823 ± 5
323.15 K, 13130 kPa, Fluid (supercritical or subcritical phases), x2 = 0.933 | 748 ± 5
323.15 K, 13170 kPa, Fluid (supercritical or subcritical phases), x2 = 0.952 | 726 ± 5
323.15 K, 13190 kPa, Fluid (supercritical or subcritical phases), x2 = 0.576 | 829 ± 5
323.15 K, 13240 kPa, Fluid (supercritical or subcritical phases), x2 = 0.902 | 771 ± 5
323.15 K, 13450 kPa, Fluid (supercritical or subcritical phases), x2 = 0.902 | 775 ± 5
323.15 K, 13560 kPa, Fluid (supercritical or subcritical phases), x2 = 0.383 | 813 ± 5
323.15 K, 13560 kPa, Fluid (supercritical or subcritical phases), x2 = 0.882 | 791 ± 5
323.15 K, 13610 kPa, Fluid (supercritical or subcritical phases), x2 = 0.811 | 821 ± 5
323.15 K, 13640 kPa, Fluid (supercritical or subcritical phases), x2 = 0.948 | 744 ± 5
323.15 K, 13700 kPa, Fluid (supercritical or subcritical phases), x2 = 0.933 | 758 ± 5
323.15 K, 13770 kPa, Fluid (supercritical or subcritical phases), x2 = 0.902 | 776 ± 5
323.15 K, 13790 kPa, Fluid (supercritical or subcritical phases), x2 = 0.772 | 827 ± 5
323.15 K, 14080 kPa, Fluid (supercritical or subcritical phases), x2 = 0.186 | 789 ± 5
323.15 K, 14080 kPa, Fluid (supercritical or subcritical phases), x2 = 0.952 | 744 ± 5
323.15 K, 14100 kPa, Fluid (supercritical or subcritical phases), x2 = 0.902 | 781 ± 5
323.15 K, 14290 kPa, Fluid (supercritical or subcritical phases), x2 = 0.933 | 767 ± 5
323.15 K, 14430 kPa, Fluid (supercritical or subcritical phases), x2 = 0.902 | 785 ± 5
323.15 K, 14460 kPa, Fluid (supercritical or subcritical phases), x2 = 0.811 | 826 ± 5
323.15 K, 14550 kPa, Fluid (supercritical or subcritical phases), x2 = 0.772 | 831 ± 5
323.15 K, 14550 kPa, Fluid (supercritical or subcritical phases), x2 = 0.882 | 800 ± 5
323.15 K, 14590 kPa, Fluid (supercritical or subcritical phases), x2 = 0.952 | 751 ± 5
323.15 K, 14730 kPa, Fluid (supercritical or subcritical phases), x2 = 0.948 | 762 ± 5
323.15 K, 14780 kPa, Fluid (supercritical or subcritical phases), x2 = 0.902 | 789 ± 5
323.15 K, 14810 kPa, Fluid (supercritical or subcritical phases), x2 = 0.383 | 817 ± 5
323.15 K, 14920 kPa, Fluid (supercritical or subcritical phases), x2 = 0.933 | 777 ± 5
323.15 K, 14950 kPa, Fluid (supercritical or subcritical phases), x2 = 0.186 | 791 ± 5
323.15 K, 15040 kPa, Fluid (supercritical or subcritical phases), x2 = 0.576 | 834 ± 5
323.15 K, 15140 kPa, Fluid (supercritical or subcritical phases), x2 = 0.902 | 792 ± 5
323.15 K, Liquid, Other PVT measurement, x2 = 0.186 | 760 ± 2
323.15 K, Liquid, Other PVT measurement, x2 = 0.383 | 787 ± 2
323.15 K, Liquid, Other PVT measurement, x2 = 0.576 | 795 ± 2
323.15 K, Liquid, Other PVT measurement, x2 = 0.772 | 779 ± 2
323.15 K, Liquid, Other PVT measurement, x2 = 0.811 | 758 ± 2
323.15 K, Liquid, Other PVT measurement, x2 = 0.882 | 701 ± 2
323.15 K, Liquid, Other PVT measurement, x2 = 0.902 | 672 ± 2
323.15 K, Liquid, Other PVT measurement, x2 = 0.933 | 584 ± 2
326.65 K, 9160 kPa, Fluid (supercritical or subcritical phases), x2 = 0.933 | 528 ± 3
326.65 K, 9180 kPa, Fluid (supercritical or subcritical phases), x2 = 0.933 | 531 ± 3
